As a reminder, the EC50 is the concentration giving half of the maximal effect. In general, microsomal CLint refers to the rate of metabolic loss divided by the concentration. High values mean faster metabolism, low ones greater metabolic stability. Usually clearance stands for the rate of elimination divided by the concentration. Read a low clearance as a low capacity for elimination. By bioavailability is commonly meant dose-corrected exposure relative to a reference, in per cent. Low values mean little systemic uptake, high ones much systemic uptake. One may read the solubility as the dissolved amount per volume that the medium holds. A higher solubility goes with much dissolved substance.

This is an account of results in ChEMBL document CHEMBL3259738, “Discovery of substituted benzamides as follicle stimulating hormone receptor allosteric modulators” (Bioorg Med Chem Lett, 2014).

Data set [1] addresses T1, Follicle-stimulating hormone receptor (Homo sapiens, UniProt P23945).
T1 sequence (P23945 whole entry): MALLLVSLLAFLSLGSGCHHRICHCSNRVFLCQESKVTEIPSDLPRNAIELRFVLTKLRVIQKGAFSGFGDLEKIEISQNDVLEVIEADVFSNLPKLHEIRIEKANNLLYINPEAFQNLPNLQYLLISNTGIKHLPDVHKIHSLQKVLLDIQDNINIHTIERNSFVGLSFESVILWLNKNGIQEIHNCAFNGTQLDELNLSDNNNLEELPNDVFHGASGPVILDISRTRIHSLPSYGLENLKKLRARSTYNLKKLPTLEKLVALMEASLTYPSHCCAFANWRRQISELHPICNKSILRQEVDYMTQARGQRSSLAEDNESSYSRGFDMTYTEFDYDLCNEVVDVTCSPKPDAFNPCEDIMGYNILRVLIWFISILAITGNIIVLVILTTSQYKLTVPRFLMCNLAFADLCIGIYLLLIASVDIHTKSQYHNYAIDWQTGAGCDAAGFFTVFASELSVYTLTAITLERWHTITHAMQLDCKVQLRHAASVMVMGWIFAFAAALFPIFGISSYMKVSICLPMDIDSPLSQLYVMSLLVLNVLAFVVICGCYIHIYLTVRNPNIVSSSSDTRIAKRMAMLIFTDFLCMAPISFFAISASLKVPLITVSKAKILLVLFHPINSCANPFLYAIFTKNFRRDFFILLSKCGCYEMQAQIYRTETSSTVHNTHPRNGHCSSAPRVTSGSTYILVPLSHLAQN
Kind of data set: Positive allosteric modulation of human FSH receptor expressed in CHO cells assessed as effect on FSH-induced cAMP accumulation after 1 hr by HTRF assay. It is filed as functional, cell-based.

The nature of data set [2]: Clearance in rat microsomes. The format is ADME.
Data set [3] in a line: Clearance in human microsomes. It is filed as ADME.
The target of data set [4] is T2, Follicle-stimulating hormone receptor (Homo sapiens) (UniProt P23945).
T2 sequence (whole entry): T1 sequence (P23945 whole entry)
Put plainly: Positive allosteric modulation of human FSH receptor expressed in CHO cells assessed as effect on FSH-induced cAMP accumulation at 50 uM after 1 hr by HTRF assay relative to FSH. The format is functional, cell-based.

Data set [5] in a line: Clearance in immature Sprague-Dawley rat at 0.2 mg/kg, iv. It is filed as ADME, organism-based. Details: dose 0.2 mg/kg, route intravenous. The conditions noted are these: in vivo.
The nature of data set [6]: Induction of estradiol production in rat primary granulosa cells after 24 hrs by ELISA. It is filed as functional.
The nature of data set [7]: Volume of distribution at steady state in immature Sprague-Dawley rat at 0.2 mg/kg, iv. The format is ADME, organism-based. The arrangement: dose 0.2 mg/kg, route intravenous. The conditions noted are these: in vivo, read-out: Vdss.
Data set [8] is described as follows: Induction of estradiol production in rat primary granulosa cells after 24 hrs by ELISA relative to FSH. It is filed as functional.
A short description of data set [9]: Oral bioavailability in immature Sprague-Dawley rat at 0.5 mg/kg. The conditions noted are these: in vivo. It is filed as ADME, organism-based.
The target in data set [10] is T2, Follicle-stimulating hormone receptor (Homo sapiens). Put plainly: Positive allosteric modulation of human FSH receptor expressed in CHO cells assessed as effect on FSH-induced cAMP accumulation at 12 uM after 1 hr by HTRF assay relative to FSH. It is filed as functional, cell-based.
Data set [11] is described as follows: Aqueous solubility of the compound at pH 7.4. It is filed as physicochemical.

Structures are written as SMILES. Values after ≈ are worked out from the molar mass of the structure shown.

As to `Cc1ccccc1N1CCN(c2ccc(C(=O)NCCCN3CCOC3=O)cc2NC(=O)c2ccco2)CC1`, the EC50 in data set [1] was determined as 0.028 µM. In addition, the intrinsic metabolic clearance (microsomal CLint) was determined as 25 µL/min/mg in data set [2] and 59 µL/min/mg in data set [3].
The like results for `Cc1ccccc1N1CCN(c2ccc(C(=O)NCCCN3CCCC3=O)cc2NC(=O)c2coc(C3CC3)n2)CC1` were, in that order, 0.099 µM, 225 µL/min/mg and 260 µL/min/mg.
For `O=C(NCCCN1CCCC1=O)c1ccc(N2CCN(c3ccccn3)CC2)c(NC(=O)c2ccco2)c1`, in data set [4], the Activity was determined as 20%.
`Cc1ccccc1N1CCN(c2ccc(C(=O)N[C@@H]3CCC[C@@H](O)[C@H]3O)cc2NC(=O)c2coc(C3CC3)n2)CC1`: in data set [5], the clearance amounted to 3.41 mL/min/kg. Also, the 50% effective concentration (EC50) in [6] was found to be 0.005 µM; in data set [1], 0.053 µM. In addition, in data set [7], the Vd is 1.65 L/kg. The same compound returned an Efficacy in data set [8] of 81%. The compound also showed a bioavailability in data set [9] of 23%. Moreover, the values for the intrinsic metabolic clearance (microsomal CLint) in data set [2] and in data set [3] were 13 µL/min/mg and 72 µL/min/mg, respectively.
Turning to `Cc1ccccc1N1CCN(c2ccc(C(=O)NCCCN3CCCC3=O)cc2NC(=O)c2ccncc2)CC1`, the Activity in data set [10] is 34%.
Still for that read-out and setting: the same measure for `Cc1ccccc1N1CCN(c2ccc(C(=O)NCCCN3CCCC3=O)cc2NC(=O)c2cccnc2)CC1`: 37%.
For `Cc1ccccc1N1CCN(c2ccc(C(=O)NCc3cccc(C(N)=O)c3)cc2NC(=O)c2ccco2)CC1`, the concentration for a half-maximal effect (EC50) in data set [1] came to 0.046 µM. The values for the microsomal CLint in data set [2] and in data set [3] were 31 µL/min/mg and 54 µL/min/mg, respectively.
`Cc1ccccc1N1CCN(c2ccc(C(=O)N3CCC(N4CCCC4=O)CC3)cc2NC(=O)c2ccco2)CC1`: the Activity in data set [10] turned out to be 40%.
Take `Cc1ccccc1N1CCN(c2ccc(C(=O)NCCCN3CCCC3=O)cc2NS(=O)(=O)c2ccco2)CC1`: the Activity in data set [10] worked out at 10%.
Turning to `Cc1ccccc1N1CCN(c2ccc(C(=O)NCCCc3nn[nH]n3)cc2NC(=O)c2coc(C3CC3)n2)CC1`, in [5], the clearance was found to be 13.2 mL/min/kg. The half-maximal effective concentration (EC50) in data set [6] amounted to 0.17 µM; in [1] it was 0.089 µM. In [11], this compound yielded a solubility of 160 µM (≈ 88.9 µg/mL). Further, in [7], the Vd worked out at 5.46 L/kg. Also, the Efficacy in [8] came to 78%. In [9], this compound registered a bioavailability of 21%. Besides, the intrinsic metabolic clearance (microsomal CLint) in [2] is 18 µL/min/mg; in data set [3], 20 µL/min/mg.
As for `Cc1ccccc1N1CCN(c2ccc(C(=O)NCCCN3CCCC3=O)cc2NC(=O)c2ccco2)CC1`, the results for the intrinsic metabolic clearance (microsomal CLint) in data set [2] and in data set [3] were 233 µL/min/mg and 312 µL/min/mg, respectively.
For the compound `COc1ccccc1N1CCN(c2ccc(C(=O)NCCCN3CCCC3=O)cc2NC(=O)c2ccco2)CC1`, the Activity in data set [4] came out at 20%.
`Cc1ccccc1C1CCN(c2ccc(C(=O)NCCCN3CCCC3=O)cc2NC(=O)c2ccco2)CC1`: in data set [4], the Activity came to 1%.
In the case of `O=C(NCCCN1CCCC1=O)c1ccc(N2CCNCC2)c(NC(=O)c2ccco2)c1`, in [4], the Activity came to 1%.
Turning to `Cc1ccccc1N1CCN(c2ccc(C(=O)NCCCN3C(=O)CCC3=O)cc2NC(=O)c2ccco2)CC1`, the concentration for a half-maximal effect (EC50) in data set [1] worked out at 0.184 µM. For the same compound, the figures for the microsomal CLint in data set [2] and in data set [3] were 38 µL/min/mg and 33 µL/min/mg, respectively.
Turning to `Cc1ccccc1N1CCN(c2ccc(C(=O)NCCCN3CCCC3=O)cc2NC(=O)c2coc(C3CC3)n2)CC1C` (configuration not stated), the Activity in data set [4] is 36%.
Regarding `Cc1ccccc1N1CCN(c2ccc(CNCCCN3CCCC3=O)cc2NC(=O)c2coc(C3CC3)n2)CC1`, the Activity in data set [10] was 4.5%.
Consider `Cc1ccc(N2CCN(c3ccc(C(=O)NCCCN4CCCC4=O)cc3NC(=O)c3coc(C4CC4)n3)CC2)cc1`, for which the Activity in data set [4] is 13%.
